Test results from patent publication US20260092071A1, “COMPOUNDS AND COMPOSITIONS AS SMARCA2/4 DEGRADERS AND USES THEREOF” (REGENTS OF THE UNIVERSITY OF MICHIGAN, priority 2022, published 2026).
Where two headings read alike, the source gives them in different places.

Experiments:
SMARCA2 = SMARCA2 (Homo sapiens, UniProt P51531); assay: HiBiT assay for protein degradation, Hela SMARCA2-HiBiT cells (A series); assay type: cell-based; parameters: Hela cells were genetically modified via CRISPR/Cas9 to fuse HiBiT to the carboxy terminus of SMARCA2; host or cells: HeLa (CRISPR/Cas9 HiBiT knock-in); conditions: for DC50: read-out: SMARC A2 Hela HiBit DC50; for Dmax: read-out: SMARC A2 Hela HiBit Dmax (%);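 on SMARC A2 Hela HiBit Dmax (%): 24 h compound treatment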
In short: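 HeLa cells engineered by CRISPR/Cas9 to carry a HiBiT tag fused to the C-terminus of SMARCA2 (Promega CS302365) were grown in DMEM supplemented with FBS and penicillin-streptomycin. After treatment, remaining SMARCA2 protein was quantified with the Nano-Glo® HiBiT Lytic Detection Assay (Promega N3050), and curves were fitted in GraphPad Prism.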

SMARCA4 = SMARCA4 (Homo sapiens, UniProt P51532); assay: HiBiT assay for protein degradation, Hela SMARCA4-HiBiT cells (A series); assay type: cell-based; parameters: fuse HiBiT to the carboxy terminus of SMARCA2 (Promega CS302365) or SMARCA4 (Promega CS3023225); host or cells: HeLa (CRISPR/Cas9 HiBiT knock-in); conditions: for DC50: read-out: SMARC A4 Hela HiBit DC50; for Dmax: read-out: SMARC A4 Hela HiBit Dmax(%)
In short: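 HeLa cells engineered by CRISPR/Cas9 to carry a HiBiT tag fused to the C-terminus of SMARCA4 (Promega CS3023225) were grown in DMEM supplemented with FBS and penicillin-streptomycin. After compound exposure, remaining SMARCA4 protein was quantified using the Nano-Glo® HiBiT Lytic Detection Assay (Promega N3050), and curves were fitted in GraphPad Prism.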

[1] = Hela SMARCA2-HiBiT cells, 24 hours treatment
[2] = Hela SMARCA4-HiBiT cells, 24 hours treatment

SMARCA4, sequence (P51532 whole entry, the tested form may be a part): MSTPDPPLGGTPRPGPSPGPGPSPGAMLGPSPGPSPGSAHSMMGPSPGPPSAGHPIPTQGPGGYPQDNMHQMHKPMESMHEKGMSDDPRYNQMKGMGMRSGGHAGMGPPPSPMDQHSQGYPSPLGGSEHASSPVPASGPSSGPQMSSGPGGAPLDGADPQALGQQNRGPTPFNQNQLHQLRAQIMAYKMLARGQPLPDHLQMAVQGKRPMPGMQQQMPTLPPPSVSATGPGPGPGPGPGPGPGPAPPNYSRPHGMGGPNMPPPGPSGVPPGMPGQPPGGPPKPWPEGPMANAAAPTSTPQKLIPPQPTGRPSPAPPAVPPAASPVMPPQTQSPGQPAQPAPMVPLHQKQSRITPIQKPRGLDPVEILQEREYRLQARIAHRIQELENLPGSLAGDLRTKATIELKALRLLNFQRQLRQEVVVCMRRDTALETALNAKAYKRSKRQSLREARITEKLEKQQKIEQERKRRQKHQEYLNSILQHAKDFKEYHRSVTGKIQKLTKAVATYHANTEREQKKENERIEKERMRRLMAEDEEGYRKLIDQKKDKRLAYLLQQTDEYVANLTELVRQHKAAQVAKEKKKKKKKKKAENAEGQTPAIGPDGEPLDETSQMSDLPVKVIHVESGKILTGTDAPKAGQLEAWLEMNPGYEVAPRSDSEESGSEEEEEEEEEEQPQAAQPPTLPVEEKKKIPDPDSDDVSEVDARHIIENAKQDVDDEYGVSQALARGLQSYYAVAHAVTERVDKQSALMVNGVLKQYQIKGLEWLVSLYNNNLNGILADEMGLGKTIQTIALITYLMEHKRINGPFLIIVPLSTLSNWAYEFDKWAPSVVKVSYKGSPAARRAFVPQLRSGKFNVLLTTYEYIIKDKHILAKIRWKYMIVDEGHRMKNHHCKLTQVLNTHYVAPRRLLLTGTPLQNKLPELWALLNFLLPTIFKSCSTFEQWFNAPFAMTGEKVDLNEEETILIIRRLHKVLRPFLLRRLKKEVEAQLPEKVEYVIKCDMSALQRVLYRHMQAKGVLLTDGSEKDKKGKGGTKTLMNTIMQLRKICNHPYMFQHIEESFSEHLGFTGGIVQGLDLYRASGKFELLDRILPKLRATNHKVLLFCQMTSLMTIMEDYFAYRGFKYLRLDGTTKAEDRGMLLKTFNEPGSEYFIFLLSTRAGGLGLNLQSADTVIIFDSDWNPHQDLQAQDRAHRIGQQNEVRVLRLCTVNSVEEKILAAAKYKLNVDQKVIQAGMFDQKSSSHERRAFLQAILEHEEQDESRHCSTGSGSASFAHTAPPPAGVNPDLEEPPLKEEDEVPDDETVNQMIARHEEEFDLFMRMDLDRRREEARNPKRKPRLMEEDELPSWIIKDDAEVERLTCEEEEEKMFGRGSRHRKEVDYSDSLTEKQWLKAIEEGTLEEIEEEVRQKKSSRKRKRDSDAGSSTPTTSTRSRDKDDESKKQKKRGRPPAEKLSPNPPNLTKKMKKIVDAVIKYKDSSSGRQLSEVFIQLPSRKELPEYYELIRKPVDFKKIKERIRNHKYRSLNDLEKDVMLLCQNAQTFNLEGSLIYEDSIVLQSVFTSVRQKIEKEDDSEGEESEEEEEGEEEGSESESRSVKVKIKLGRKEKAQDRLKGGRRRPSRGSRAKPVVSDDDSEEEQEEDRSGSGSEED
SMARCA2, sequence (P51531 whole entry, the tested form may be a part): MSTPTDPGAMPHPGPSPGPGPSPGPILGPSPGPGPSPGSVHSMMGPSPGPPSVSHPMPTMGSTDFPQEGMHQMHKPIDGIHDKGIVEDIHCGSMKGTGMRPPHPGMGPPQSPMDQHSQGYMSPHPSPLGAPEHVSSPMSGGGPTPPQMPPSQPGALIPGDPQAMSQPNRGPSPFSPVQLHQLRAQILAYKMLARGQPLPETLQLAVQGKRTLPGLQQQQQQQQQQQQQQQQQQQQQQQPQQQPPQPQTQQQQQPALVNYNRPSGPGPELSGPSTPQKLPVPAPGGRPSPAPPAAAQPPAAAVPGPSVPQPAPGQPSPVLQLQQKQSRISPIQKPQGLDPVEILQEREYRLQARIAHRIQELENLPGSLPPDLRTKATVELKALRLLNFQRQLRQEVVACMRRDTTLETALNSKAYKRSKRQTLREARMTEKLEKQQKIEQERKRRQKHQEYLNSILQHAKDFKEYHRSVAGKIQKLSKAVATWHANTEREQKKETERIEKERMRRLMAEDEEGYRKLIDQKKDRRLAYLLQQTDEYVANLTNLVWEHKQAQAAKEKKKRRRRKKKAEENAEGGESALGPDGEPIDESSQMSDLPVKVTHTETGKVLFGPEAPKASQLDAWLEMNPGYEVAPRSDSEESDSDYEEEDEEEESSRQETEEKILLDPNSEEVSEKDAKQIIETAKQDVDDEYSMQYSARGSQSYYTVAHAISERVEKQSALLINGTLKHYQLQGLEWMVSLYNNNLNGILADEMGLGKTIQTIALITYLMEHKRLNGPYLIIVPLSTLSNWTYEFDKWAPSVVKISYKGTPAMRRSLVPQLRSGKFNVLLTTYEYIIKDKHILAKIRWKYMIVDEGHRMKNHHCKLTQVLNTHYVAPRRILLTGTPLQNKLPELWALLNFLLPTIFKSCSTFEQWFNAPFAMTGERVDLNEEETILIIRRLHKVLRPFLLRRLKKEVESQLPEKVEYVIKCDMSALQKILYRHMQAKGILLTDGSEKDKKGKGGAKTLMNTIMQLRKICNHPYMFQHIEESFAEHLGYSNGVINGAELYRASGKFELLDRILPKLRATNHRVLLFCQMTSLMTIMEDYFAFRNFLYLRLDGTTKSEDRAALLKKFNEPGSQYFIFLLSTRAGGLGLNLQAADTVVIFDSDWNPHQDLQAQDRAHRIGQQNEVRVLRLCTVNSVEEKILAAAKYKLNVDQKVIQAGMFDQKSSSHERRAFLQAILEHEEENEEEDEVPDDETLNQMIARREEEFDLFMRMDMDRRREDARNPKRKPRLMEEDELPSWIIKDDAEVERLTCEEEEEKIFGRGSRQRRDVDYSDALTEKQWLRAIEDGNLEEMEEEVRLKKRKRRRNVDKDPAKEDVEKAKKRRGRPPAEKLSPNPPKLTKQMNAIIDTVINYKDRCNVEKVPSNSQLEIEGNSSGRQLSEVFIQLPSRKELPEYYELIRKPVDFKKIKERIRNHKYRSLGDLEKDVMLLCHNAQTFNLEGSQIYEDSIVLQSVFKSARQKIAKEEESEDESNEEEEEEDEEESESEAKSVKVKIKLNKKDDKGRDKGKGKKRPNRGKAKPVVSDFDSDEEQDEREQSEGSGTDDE

| Compound | DC50 (SMARCA2; [1]) [µM] | Dmax (SMARCA2; [1]) [%] | DC50 (SMARCA4; [2]) [µM] | Dmax (SMARCA4; [2]) [%] | SMARC A2 Hela HiBit Dmax (%) (SMARCA2) | DC50 (SMARCA2) [µM] | DC50 (SMARCA4) [µM] | SMARC A2 Hela HiBit Dmax (%) (SMARCA2; [1]) | SMARC A4 Hela HiBit Dmax(%) (SMARCA4; [2]) | Dmax (SMARCA2; HeLa) [%] | Dmax (SMARCA4; HeLa) [%] |
| --- | --- | --- | --- | --- | --- | --- | --- | --- | --- | --- | --- |
| Cc1ncsc1-c1ccc([C@H](C)NC(=O)[C@@H]2C[C@@H](O)CN2C(=O)[C@@H](n2cc(CCCCCN3CCC(c4ccc5c(c4)C4(CCCCC4)c4nc(=O)c6c(Br)cccc6n4-5)CC3)nn2)C(C)(C)C)cc1 [Compound A57, (2S,4R)-1-((S)-2-(4-(5-(4-(4′-bromo-5′-oxo-5′H-spiro[cyclohexane-1,7′-indolo[1,2-a]quinazolin]-9′-yl)piperidin-1-yl)pentyl)-1H-1,2,3-triazol-1-yl)-3,3-dimethylbutanoyl)-4-hydroxy-N—((S)-1-(4-(4-methylthiazol-5-yl)phenyl)ethyl)pyrrolidine-2-carboxamide] | < 0.1 | > 90 | < 0.1 | > 90 |  |  |  |  |  |  |  |
| Cc1ncsc1-c1ccc([C@H](C)NC(=O)[C@@H]2C[C@@H](O)CN2C(=O)[C@@H](n2cc(CCCCCCN3CCC(c4ccc5c(c4)C4(CCCCC4)c4nc(=O)c6c(Br)cccc6n4-5)CC3)nn2)C(C)(C)C)cc1 [Compound A58, (2S,4R)-1-((S)-2-(4-(6-(4-(4′-bromo-5′-oxo-5′H-spiro[cyclohexane-1,7′-indolo[1,2-a]quinazolin]-9′-yl)piperidin-1-yl)hexyl)-1H-1,2,3-triazol-1-yl)-3,3-dimethylbutanoyl)-4-hydroxy-N—((S)-1-(4-(4-methylthiazol-5-yl)phenyl)ethyl)pyrrolidine-2-carboxamide] | < 0.1 | > 90 | < 0.1 | > 90 |  |  |  |  |  |  |  |
| Cc1ncsc1-c1ccc([C@@H](C)NC(=O)[C@@H]2C[C@@H](O)CN2C(=O)C(c2cc(N3CCC(CN4CCC(c5ccc6c(c5)C5(CCCCC5)c5nc(=O)c7c(Br)cccc7n5-6)CC4)CC3)no2)C(C)C)cc1 (stereo partly drawn) [Compound A59, (2S,4R)-1-(2-(3-(4-((4-(4′-bromo-5′-oxo-5′H-spiro[cyclohexane-1,7′-indolo[1,2-a]quinazolin]-9′-yl)piperidin-1-yl)methyl)piperidin-1-yl)isoxazol-5-yl)-3-methylbutanoyl)-4-hydroxy-N—((R)-1-(4-(4-methylthiazol-5-yl)phenyl)ethyl)pyrrolidine-2-carboxamide] | < 0.1 | 70 to 90 | > 1 | < 50 |  |  |  |  |  |  |  |
| Cc1ncsc1-c1ccc([C@H](C)NC(=O)[C@@H]2C[C@@H](O)CN2C(=O)[C@@H](n2cc([C@H]3CC[C@H](CN4CCC(c5ccc6c(c5)C5(CCCCC5)c5nc(=O)c7c(Br)cccc7n5-6)CC4)CC3)nn2)C(C)(C)C)cc1 [Compound A60, (2S,4R)-1-((S)-2-(4-((1r,4S)-4-((4-(4′-bromo-5′-oxo-5′H-spiro[cyclohexane-1,7′-indolo[1,2-a]quinazolin]-9′-yl)piperidin-1-yl)methyl)cyclohexyl)-1H-1,2,3-triazol-1-yl)-3,3-dimethylbutanoyl)-4-hydroxy-N—((S)-1-(4-(4-methylthiazol-5-yl)phenyl)ethyl)pyrrolidine-2-carboxamide] |  |  |  |  | A (key: A (>90% degradation); B (70-90% degradation); C (50-69% degradation); D (<50% degradation)) | < 0.1 | < 0.1 |  |  |  |  |
| Cc1ncsc1-c1ccc([C@H](C)NC(=O)[C@@H]2C[C@@H](O)CN2C(=O)[C@@H](n2cc([C@H]3C[C@H](CN4CCC(c5ccc6c(c5)C5(CCCCC5)c5nc(=O)c7c(Br)cccc7n5-6)CC4)C3)nn2)C(C)(C)C)cc1 [Compound A61, (2S,4R)-1-((S)-2-(4-((1r,3S)-3-((4-(4′-bromo-5′-oxo-5′H-spiro[cyclohexane-1,7′-indolo[1,2-a]quinazolin]-9′-yl)piperidin-1-yl)methyl)cyclobutyl)-1H-1,2,3-triazol-1-yl)-3,3-dimethylbutanoyl)-4-hydroxy-N—((S)-1-(4-(4-methylthiazol-5-yl)phenyl)ethyl)pyrrolidine-2-carboxamide] |  |  |  |  |  | < 0.1 | < 0.1 | A (A (>90% degradation)) | A (A (>90% degradation)) |  |  |
| Cc1ncsc1-c1ccc([C@H](C)NC(=O)[C@@H]2C[C@@H](O)CN2C(=O)[C@@H](n2cc([C@H]3CC[C@H](CN4CCC(c5ccc6c(c5)-n5c(nc(=O)c7c(Br)cccc75)C65CCCCC5)CC4)CC3)nn2)C(C)(C)C)cc1 [Compound A62, (2S,4R)-1-((S)-2-(4-((1r,4S)-4-((4-(4′-bromo-5′-oxo-5′H-spiro[cyclohexane-1,7′-indolo[1,2-a]quinazolin]-10′-yl)piperidin-1-yl)methyl)cyclohexyl)-1H-1,2,3-triazol-1-yl)-3,3-dimethylbutanoyl)-4-hydroxy-N—((S)-1-(4-(4-methylthiazol-5-yl)phenyl)ethyl)pyrrolidine-2-carboxamide] |  |  |  |  |  | < 0.1 | < 0.1 |  |  | > 90 | 70 to 90 |
| Cc1ncsc1-c1ccc([C@H](C)NC(=O)[C@@H]2C[C@@H](O)CN2C(=O)[C@@H](n2cc([C@H]3C[C@H](CN4CCC(c5ccc6c(c5)-n5c(nc(=O)c7c(Br)cccc75)C65CCCCC5)CC4)C3)nn2)C(C)(C)C)cc1 [Compound A63, (2S,4R)-1-((S)-2-(4-((1r,3S)-3-((4-(4′-bromo-5′-oxo-5′H-spiro[cyclohexane-1,7′-indolo[1,2-a]quinazolin]-10′-yl)piperidin-1-yl)methyl)cyclobutyl)-1H-1,2,3-triazol-1-yl)-3,3-dimethylbutanoyl)-4-hydroxy-N—((S)-1-(4-(4-methylthiazol-5-yl)phenyl)ethyl)pyrrolidine-2-carboxamide] |  |  |  |  |  | < 0.1 | < 0.1 | A (A (>90% degradation)) | B (B (70-90% degradation)) |  |  |
| Cc1ncsc1-c1ccc([C@H](C)NC(=O)[C@@H]2C[C@@H](O)CN2C(=O)[C@@H](n2cc(C3(CN4CCC(c5ccc6c(c5)-n5c(nc(=O)c7c(Br)cccc75)C65CCCCC5)CC4)CC3)nn2)C(C)(C)C)cc1 [Compound A64, (2S,4R)-1-((S)-2-(4-(1-((4-(4′-bromo-5′-oxo-5′H-spiro[cyclohexane-1,7′-indolo[1,2-a]quinazolin]-10′-yl)piperidin-1-yl)methyl)cyclopropyl)-1H-1,2,3-triazol-1-yl)-3,3-dimethylbutanoyl)-4-hydroxy-N—((S)-1-(4-(4-methylthiazol-5-yl)phenyl)ethyl)pyrrolidine-2-carboxamide] |  |  |  |  |  | < 0.1 | 0.1 to 0.5 | A (A (>90% degradation)) | B (B (70-90% degradation)) |  |  |
| Cc1ncsc1-c1ccc([C@H](C)NC(=O)[C@@H]2C[C@@H](O)CN2C(=O)[C@@H](n2cc(C3(CCN4CCC(c5ccc6c(c5)-n5c(nc(=O)c7c(Br)cccc75)C65CCCCC5)CC4)CC3)nn2)C(C)(C)C)cc1 [Compound A65, (2S,4R)-1-((S)-2-(4-(1-(2-(4-(4′-bromo-5′-oxo-5′H-spiro[cyclohexane-1,7′-indolo[1,2-a]quinazolin]-10′-yl)piperidin-1-yl)ethyl)cyclopropyl)-1H-1,2,3-triazol-1-yl)-3,3-dimethylbutanoyl)-4-hydroxy-N—((S)-1-(4-(4-methylthiazol-5-yl)phenyl)ethyl)pyrrolidine-2-carboxamide] |  |  |  |  |  | < 0.1 | < 0.1 | A (A (>90% degradation)) | A (A (>90% degradation)) |  |  |
| Cc1ncsc1-c1ccc([C@H](C)NC(=O)[C@@H]2C[C@@H](O)CN2C(=O)[C@@H](n2cc(-c3ccc(CN4CCC(c5ccc6c(c5)-n5c(nc(=O)c7c(Br)cccc75)C65CCCCC5)CC4)nc3)nn2)C(C)(C)C)cc1 [Compound A66] |  |  |  |  |  | > 1 | > 1 | C (C (50-69% degradation)) | D (D (<50% degradation)) |  |  |
| Cc1ncsc1-c1ccc(CNC(=O)[C@@H]2C[C@@H](O)CN2C(=O)[C@@H](n2cc([C@H]3CC[C@H](CN4CCC(c5ccc6c(c5)-n5c(nc(=O)c7c(Br)cccc75)C65CCCCC5)CC4)CC3)nn2)C(C)(C)C)cc1 [Compound A67, (2S,4R)-1-((S)-2-(4-((1r,4S)-4-((4-(4′-bromo-5′-oxo-5′H-spiro[cyclohexane-1,7′-indolo[1,2-a]quinazolin]-10′-yl)piperidin-1-yl)methyl)cyclohexyl)-1H-1,2,3-triazol-1-yl)-3,3-dimethylbutanoyl)-4-hydroxy-N-(4-(4-methylthiazol-5-yl)benzyl)pyrrolidine-2-carboxamide] | < 0.1 | > 90 | < 0.1 | 70 to 90 |  |  |  |  |  |  |  |
